# Key:
# K562 leukemia cells = assay: K562 leukemia xenograft; format: in vivo, mouse; settings: 100 mg/kg for 5 of 7 days, subcutaneous K562
# Description: Similar results were obtained with a K562 leukemia xenograft.
# [1] = test system: acute leukemia cell lines; assay: Cell viability (MTS assay), acute leukemia cell lines; format: cell-based; settings: 6/7 AML cell lines, forty-eight hours; read-out: IC50 (cell death)
# Experimental: (§1) Cell viability of leukemia, myeloma, solid tumor and primary cells forty-eight hours after clioquinol treatment by MTS assay. Cell viability was assessed with the CellTiter96® Aqueous Non-Radioactive Assay kit according to manufactures' instructions (Promega). Apoptosis was measured by flow cytometry to detect cell surface Annexin V expression and propidium iodide (PI) uptake (Biovision, Mountain View, Calif., USA) as previously described (20) The inventors tested the effects of clioquinol on the viability of acute leukemia (n=7), myeloma (n=14), and solid tumor (n=5) cell lines as well as primary AML samples (n=6) and primary normal hematopoietic cells (n=3). Forty-eight hours after incubation, clioquinol induced cell death in 6/7 AML, 12/14 myeloma, 0/5 solid tumor, […] and 0/3 normal hematopoietic cells with an IC50 <20 μM (FIG. 5). Of note, after oral administration of clioquinol, trough serum concentrations of 20 μM can be achieved in patients (32).
# cyclin D2 = assay: Immunoblotting of cyclin D2 in myeloma and leukemia cells; format: cell-based; settings: low micromolar concentrations
# Description: A) Effect of increasing concentrations of clioquinol on LP1 and MY5 multiple myeloma cells at twenty hours after clioquinol treatment; determined by SDS-PAGE immunoblotting. B) Effect of increasing concentrations of clioquinol on the G0/G1 ratio in AML3, U937, LP1 and MY5 cells at twenty hours after clioquinol treatment; determined by PI staining and flow cytometry. To prepare cytosolic extracts, NIH3T3 cells and myeloma cells were washed with phosphate-buffered saline (PBS, pH 7.4) and suspending in lysis buffer [10 mM Tris (pH 7.4), 150 mM NaCl, 0.1% Triton X-100, 0.5% sodium deoxycholate, and 5 mM EDTA] containing protease inhibitors (Complete tablets, Roche, Indianapolis, Ind.). Protein concentrations were determined by the Bradford assay. Immunoblot assays were performed by subjecting equal amounts of protein to SDS-PAGE gels followed by transfer to Nitrocellulose membranes. Membranes were probed with polyclonal rabbit anti-human cyclin D2 (0.5 μg/ml, both from Santa Cruz Biotech, Santa Cruz, Calif.), or monoclonal mouse-anti human p21 (1:200 v/v, Santa Cruz Biotech), monoclonal mouse-anti human p27 (1:2,500 v/v BD Transduction Laboratories), polyclonal mouse-anti human ubiquitin (1:2,000 v/v Calbiochem) and monoclonal mouse-anti-β-actin (1:10,000 v/v) (Sigma, St. Lois, Mo.). […] Detection was performed by the Enhanced Chemical Luminescence (ECL) method (Pierce, Rockford, Ill.).
# [2] = test system: normal hematopoietic cells; assay: Cell viability (MTS assay), primary normal hematopoietic cells; format: cell-based, human; settings: normal hematopoietic cells supplemented with copper
# Experimental: as §1
# cyclin D2 promoter = assay: High throughput screen for inhibitors of cyclin D2 transactivation (luciferase assay); format: cell-based, mouse; settings: NIH 3T3 cells over-expressing c-maf, ~5 μM, sixteen hours
# Description: The promoter of cyclin D2 (−894 to −4), containing c-maf responsive element sequence (MARE), was cloned from HeLa cell genomic DNA and subcloned into the pGL2 luciferase reporter vector (Promega, Madison, Wis.). This construct was co-transfected with pcDNA3.1 containing a neomycin resistance gene into NIH3T3 wild type cells and NIH3T3 cells stably over-expressing c-maf-IRES-GFP. Cells stably expressing c-maf, GFP, and luciferase were selected for further application. NIH3T3 cells stably expressing c-maf and the cyclin D2 promoter driving luciferase (13,000 cells per well) were plated in 96-well plates by the Biomek FX liquid handler (Beckman, Fullerton, Calif.). The same workstation was used for plate formatting and reagent distribution. […] After incubation, cyclin D2 transactivation was assessed by the luciferase assay and viability was assessed by the MTS assay. Luciferase activity was assessed according to the manufacturer's instructions (Promega, Madison, Wis.). […] After 10 min incubation, an equal volume of Bright-Glo Luciferase substrate (Promega) was added and the luminescence signal was detected with a 96-well Luminoskan luminescence plate reader (Thermo Labsystem, Waltham, Mass.) with a 5 second integration. […] Sixteen hours after the addition of the compounds, luciferase expression was measured as a marker of cyclin D2 transactivation. […]
smiles,measurement,setting,value
"Oc1c(I)cc(Cl)c2cccnc12 [clioquinol, 5-chloro-7-iodo-8-hydroxyquinoline]",tumor growth (tumor volume),K562 leukemia cells,delayed tumor growth
same,IC50,[1],< 20 µM
same,levels of cyclin D2,cyclin D2,reduced levels of cyclin D2
same,potency of clioquinol,[2],increased the potency of clioquinol
same,cyclin D2 transactivation (luciferase expression),cyclin D2 promoter,c-maf independent inhibitors of the cyclin D2 promoter
